Laboratory results: US5726203A, “Qinghaosu derivatives against AIDS” (priority 1993, dated 1998)
Where two headings read alike, the source gives them in different places.

Columns and labels:
HIV-1 (MT4) = assay: Anti-HIV effect on MT4 cells, virus antigen expression (immunoenzymatic method); assay type: cell-based
From the text: The virus used was HIV-1 which had been obtained from Professor Montagnier of the Pastear Institute, France. The virus titer used in the experiment was 1×10^4 TCID50 /ml. The cell culture used was CEM cell line which was cultivated in the HIV laboratory of Institute of Virology, Chinese Academy of Preventive Medicine, for cultivation storage of HIV-1.
The compounds used in the experiment were qinghaosu, dihydroqinghaosu, Artesunate, Artemether, dihydroqinghaosu-methylcarbamate, dihydroqinghaosu-benzenecarbamate, qinghaosu-morpholinyl propylether maleate, dihydroqinghaosu-diethyl amino ethyl ether maleate, deoxyqinghaosu-morpholinyl ethyl ether maleate, qinghaosu-morpholinyl propanol ether maleate, qinghaosu-3,5-dimonpholinyl methyl-4-hydroxy benzyl ether maleate, dihydroqinghaosu-m-chlorobenzoate, qinghaosu-3-pyrrolidinylmethyl-4-hydroxybenzoate oxalate, and qinghaosu-3-morpholinylmethyl-4-hydroxybenzoate oxalate. […] The concentration of the original solution of these compounds were all 1 mg/ml.
(§1) a. Freshly cultured MT4 cells (5×10^5 /ml) were co-cultivated with the virus fluid (10^3 TCID50 /ml) in a CO2 incubator at 37° C. for 1-1.5 hours. RPMI 1640 complete medium (containing 10% Bovine serum and antibiotics, such as penicillin) was used to wash the unbound virus.
(§2) Complete medium was added to correct the concentration for use.
(§3) The experiment was carried out on the plates with 96 wells. 0.1 ml of the above-mentioned infected MT4 cell suspension was added into each well, and then 0.1 ml of various concentrations of the drugs were added. […] Each concentration of the drugs was added into two wells. Both the experiment group and the control group were incubated in a CO2 incubator at 37° C. The drug solution were changed 3 days later, and the following observations were carried out 6 days afterwards.
b. Observation on the growth situation of cells. Trypan blue dye was used to observe the quantity of live cells in each group.
(§4) c. Determination of the virus antigen expression. The immunoenzymatic method was used to examine the virus antigen expression. Cells from each group were separately smeared in two wells. They were fixed with cold acetone, HIV-positive serum was dropped into the wells. After incubated in a CO2 incubator at 37° C. for 30 minutes, they were washed with PBS for 3 times. Enzyme-labelled SPA was dropped into the wells. They were incubated in the same condition for 30 minutes, washed with PBS for 3 times, and then put in substrate solution to stain for 2-3 minutes, washed with distilled water, and observed under microscope. Normal cells were colorless, whereas virus-carrying cells appeared browrish red.
The mark used were as follows:
The experiment was repeated two to three times.
The concentration of the original fluid of these compounds were all 1 mg/ml. 0.1 ml was taken and added into 0.1 ml of virus-carrying cell suspension, thus the reaction concentrations were as follows: in the original fluid group, 0.1 mg/0.2 ml, i.e., 0.5 mg/ml; in 1×10^-1group, 0.05 mg/ml; in 1×10^-2 group, 0.005 mg/ml; in 1×10^-3 group, 0.0005 mg/ml, i.e., 0.5 μg/ml; and on the analogy of this.

U937 HIV-1 [1] = assay: Inhibition effect on HIV-1 infected U937 cells, activity of reverse transcriptase; assay type: cell-based; conditions: 50 μg/ml, control 24502
From the text: (§5) Furthermore, a part of the compounds according to the present invention were used to test their inhibition effect on U937 cell line (macrophage cell line)according to the methods in Experiment 1.

U937 HIV-1 [2] = assay: Inhibition effect on HIV-1 infected U937 cells (macrophage cell line), HIV antigen test (IE); assay type: cell-based; conditions: U937 HIV-1; 50 μg/ml
Protocol: as §1, §2, §3, §4, §5

Acute toxicity in mice = assay type: in vivo; conditions: for LD50: mouse, in vivo, po
Protocol: Animals: Hybrid swiss strain mice (provided by Animal House of Institute of Chinese Mateia Media, China Academy of Traditional Chinese Medicine), 20-22 grams, less than 6 weeks age of both sexes fed in laboretory for 3-5 days observation and a random taking food and drinking.
Drugs: Dihydroqinghaosu-methylcarbamate and dihydroqinghaosu-benzenecarbamate.
Above two drugs in powder form were dissolved into peanut oil. The biggest dose were 2000 mg/kg and 2161 mg/kg respectively. The distances between two dose groups were 0.7 and 0.68 respectively, with 5 dose groups each drugs.
Method: The mice were given single dose of above compound respectively intragastrically, the acute intoxication manifestrations were observed the LD value (LD5, LD50 and LD95) and B value were determined by three days mortality.

Toxoplasma Gendei = assay: Antitoxoplasma effect in vitro in BALB/C mouse macrophages; assay type: cell-based; conditions: for Infected rate of macrophages / No. of parasites in 100 macrophages / inhibition at 50 µg/mL / inhibition at 100 µg/mL / inhibition at 200 µg/mL: 48 hours; for Infected rate of macrophages: control 75.60; for No. of parasites in 100 macrophages: control 544.00; for inhibition at 50 µg/mL / inhibition at 100 µg/mL / inhibition at 200 µg/mL: Toxoplasma, Macrophage
Protocol: In vitro incubation was used in the experiment. Macrophages were taken from intraperitoneal of the uninfected BALB/C mice (obtained from Universite Pierre et Marie Curie), centrafuged, washed and counted. Around 1.28×10^5 cells was added into each culture dish, incubated at 37° C. for 3 hours to let the cells to be adherented, then infected by parasites (Toxoplasma Gendei, obtained from Universite Pierre et Marie Curie), in which parasite number was 1×106, so that there were 5 organisms per macrophage. The dishes were incubated at 37° C. for 48 hours, different concentration, (i.e., 50 μg/ml, 100 μg/ml, 200 μg/ml) of the compound according to the present invention was added in. In a control group, no drug was added in. After being cultured at 37° C. for 48 hours, dishes of compound treated groups and control group were colorated. Under microscope, the number of infected and uninfected macrophages in each dishes were counted and to calculated infected rate of macrophage and to count the number of parasites in 100 macrophages.

[3] = Subacute toxicologic study; conditions: in vivo, read-out: basic safe dosage
[4] = F + M, single dose intragastrically
[5] = F, single dose intragastrically
[6] = M, single dose intragastrically

Q: For CNC(=O)OC1OC2OC3(C)CCC4C(C)CCC(C1C)C24OO3 (stereo not shown) [Dihydroqinghaosu-methylcarbamate, Dihydroqinghaosu-Methylcarbamate], which “effect on HIV-1 (MT4), virus antigen expression” value (shortened to “effect on HIV-1 (MT4)”) (HIV-1 (MT4); 1 × 10^-1 (50 μg/ml)) is on record?
A: The value was “- (positive cells were not seen in the whole well)”.

Q: And the “effect on HIV-1 (MT4)” value (HIV-1 (MT4); 1 × 10^-2 (5 μg/ml))?
A: Its value is “- (positive cells were not seen in the whole well)”.

Q: What about the “effect on HIV-1 (MT4)” value (HIV-1 (MT4); 1 × 10^-3 (0.5 μg/ml)) of the same molecule?
A: The value was “- (positive cells were not seen in the whole well)”.

Q: What about the “effect on HIV-1 (MT4)” value (HIV-1 (MT4); 1 × 10^-4 (0.05 μg/ml)) of the same molecule?
A: The value was “- (positive cells were not seen in the whole well)”.

Q: What about the “inhibition on HIV” value (HIV-1 (MT4); according to Table 1) of the same molecule?
A: The value was “distinct inhibition on HIV”.

Q: And the “Activity of reverse transcription (CPM)” value (U937 HIV-1 [1])?
A: The value was 4463 CPM.

Q: What about the “Antigen test (IE)” value (U937 HIV-1 [2]) of the same molecule?
A: The value was “- (positive cells were not seen in the whole well)”.

Q: What about the “Death distribution of mice, exp./death” value (Acute toxicity in mice; 462 mg/kg, female) of the same molecule?
A: Its value is 5/0.

Q: What about the “Death distribution of mice, exp./death” value (Acute toxicity in mice; 462 mg/kg, female + male) of the same molecule?
A: The value was 10/1.

Q: What about the “Death distribution of mice, exp./death” value (Acute toxicity in mice; 462 mg/kg, male) of the same molecule?
A: Its value is 5/1.

Q: What about the “Death distribution of mice, exp./death” value (Acute toxicity in mice; 680 mg/kg, female) of the same molecule?
A: Its value is 5/2.

Q: And the “Death distribution of mice, exp./death” value (Acute toxicity in mice; 680 mg/kg, female + male)?
A: The value was 10/2.

Q: What about the “Death distribution of mice, exp./death” value (Acute toxicity in mice; 680 mg/kg, male) of the same molecule?
A: Its value is 5/1.

Q: What about the “Death distribution of mice, exp./death” value (Acute toxicity in mice; 1000 mg/kg, female) of the same molecule?
A: Its value is 5/2.

Q: What about the “Death distribution of mice, exp./death” value (Acute toxicity in mice; 1000 mg/kg, female + male) of the same molecule?
A: Its value is 10/4.

Q: What about the “Death distribution of mice, exp./death” value (Acute toxicity in mice; 1000 mg/kg, male) of the same molecule?
A: Its value is 5/2.

Q: What about the “Death distribution of mice, exp./death” value (Acute toxicity in mice; 1470 mg/kg, female) of the same molecule?
A: Its value is 5/2.

Q: What about the “Death distribution of mice, exp./death” value (Acute toxicity in mice; 1470 mg/kg, female + male) of the same molecule?
A: Its value is 10/5.

Q: What about the “Death distribution of mice, exp./death” value (Acute toxicity in mice; 1470 mg/kg, male) of the same molecule?
A: The value was 5/3.

Q: What about the “Death distribution of mice, exp./death” value (Acute toxicity in mice; 2161 mg/kg, female) of the same molecule?
A: Its value is 5/5.

Q: And the “Death distribution of mice, exp./death” value (Acute toxicity in mice; 2161 mg/kg, female + male)?
A: The value was 10/10.

Q: What about the “Death distribution of mice, exp./death” value (Acute toxicity in mice; 2161 mg/kg, male) of the same molecule?
A: Its value is 5/5.

Q: What about the LD5 (Acute toxicity in mice; [4]) of the same molecule?
A: Its LD5 is 435.75 mg/kg.

Q: And the LD95 (Acute toxicity in mice; [4])?
A: The LD95 was 2883.02 mg/kg.

Q: And the “slope (B)” value (Acute toxicity in mice; [4])?
A: The value was 4.01.

Q: What about the LD5 (Acute toxicity in mice; [5]) of the same molecule?
A: Its LD5 is 543.17 mg/kg.

Q: What about the LD95 (Acute toxicity in mice; [5]) of the same molecule?
A: Its LD95 is 2711.67 mg/kg.

Q: And the “slope (B)” value (Acute toxicity in mice; [5])?
A: Its value is 4.711.

Q: And the LD5 (Acute toxicity in mice; [6])?
A: The LD5 was 360.92 mg/kg.

Q: What about the LD95 (Acute toxicity in mice; [6]) of the same molecule?
A: Its LD95 is 2932.84 mg/kg.

Q: What about the “slope (B)” value (Acute toxicity in mice; [6]) of the same molecule?
A: Its value is 3.620.

Q: And the LD50 (Acute toxicity in mice; [4])?
A: Its LD50 is 1120 mg/kg.

Q: And the LD50 (Acute toxicity in mice; [5])?
A: Its LD50 is 1210 mg/kg.

Q: And the LD50 (Acute toxicity in mice; P.O. (per os))?
A: The LD50 was 1120 mg/kg.

Q: And the LD50 (Acute toxicity in mice; single dose intragastrically)?
A: The LD50 was 1030 mg/kg.

Q: What about the “Infected rate of macrophages” value (Toxoplasma Gendei; 50 μg/ml) of the same molecule?
A: The value was 0.67.

Q: What about the “No. of parasites in 100 macrophages” value (Toxoplasma Gendei; 50 μg/ml) of the same molecule?
A: The value was 2.67.

Q: And the “Infected rate of macrophages” value (Toxoplasma Gendei; 100 μg/ml)?
A: Its value is 0.

Q: What about the “No. of parasites in 100 macrophages” value (Toxoplasma Gendei; 100 μg/ml) of the same molecule?
A: Its value is 0.

Q: What about the “Infected rate of macrophages” value (Toxoplasma Gendei; 200 μg/ml) of the same molecule?
A: The value was 0.

Q: And the “No. of parasites in 100 macrophages” value (Toxoplasma Gendei; 200 μg/ml)?
A: The value was 0.

Q: What about the inhibition at 50 µg/mL (Toxoplasma Gendei; 50 μg/ml, read-out: Inhibition rate (No. of parasites in 100 macrophages)) of the same molecule?
A: Its inhibition at 50 µg/mL is 99.5%.

Q: What about the inhibition at 50 µg/mL (Toxoplasma Gendei; 50 μg/ml, read-out: Inhibition rate (infected rate of macrophages)) of the same molecule?
A: The inhibition at 50 µg/mL was 99.1%.

Q: And the inhibition at 100 µg/mL (Toxoplasma Gendei; 100 μg/ml, read-out: Inhibition rate (No. of parasites in 100 macrophages))?
A: The inhibition at 100 µg/mL was 100%.

Q: And the inhibition at 100 µg/mL (Toxoplasma Gendei; 100 μg/ml, read-out: Inhibition rate (infected rate of macrophages))?
A: Its inhibition at 100 µg/mL is 100%.

Q: What about the inhibition at 200 µg/mL (Toxoplasma Gendei; 200 μg/ml, read-out: Inhibition rate (No. of parasites in 100 macrophages)) of the same molecule?
A: Its inhibition at 200 µg/mL is 100%.

Q: What about the inhibition at 200 µg/mL (Toxoplasma Gendei; 200 μg/ml, read-out: Inhibition rate (infected rate of macrophages)) of the same molecule?
A: The inhibition at 200 µg/mL was 100%.

Q: And the “inhibition on Toxoplasma Gendei in vitro” value (Toxoplasma Gendei; in words)?
A: The value was “obvious inhibition on Toxoplasma Gendei in vitro”.

Q: And the NOAEL [3]?
A: The NOAEL was 30.2 mg/kg/day.
